Assays:
[1] = tested on: Hsp90A sequence from the HSP90 promoter; test: FRET quadruplex stabilisation assay, Hsp90A; assay type: binding; conditions: compound at 1 μM, 60 mM potassium cacodylate buffer pH 7.4
Description: (§1) The ability of the naphthalene diimide compounds to stabilize quadruplex DNA sequences was investigated using a fluorescence resonance energy transfer (FRET) assay modified to be used as a high-throughput screen in a 96-well format. Several quadruplex sequences were studied (including the human telomeric G-quadruplex DNA sequence 5′-FAM-d(GGG[TTAGGG]3)-TAMRA-3′ and the duplex sequence 5′-FAM-d[…]-HEG-[…]-TAMRA-3′ (HEG linker: [(—CH2—CH2—O—)6.
(§2) The labelled oligonucleotides have attached to them the donor fluorophore FAM: 6-carboxyfluorescein and the acceptor fluorophore TAMRA: 6-carboxytetramethylrhodamine. The FRET probe sequences were diluted from stock to the correct concentration (400 nM) in a 60 mM potassium cacodylate buffer (pH 7.4) and then annealed by heating to 85° C. for 10 min, followed by cooling to room temperature in the heating block. The compound was stored as a 10 mM stock solution in DMSO; final solutions (at 2× concentration) were prepared using 10 mM HCl in the initial 1:10 dilution, after which 60 mM potassium cacodylate buffer (pH 7.4) was used in all subsequent steps. The maximum HCl concentration in the reaction volume (at a ligand concentration of 20 μM) is thus 200 μM, well within the range of the buffer used. Relevant controls were also performed to check for interference with the assay. 96-Well plates (MJ Research, Waltham, Mass.) were prepared by aliquoting 50 μl of the annealed DNA into each well, followed by 50 μl of the compound solutions. Measurements were made on a DNA Engine Opticon (MJ Research) with excitation at 450-495 nm and detection at 515-545 nm. Fluorescence readings were taken at intervals of 0.5° C. in the range 30-100° C., with a constant temperature being maintained for 30 s prior to each reading to ensure a stable value. Final analysis of the data was carried out using a script written in the program Origin 7.0 (OriginLab Corp., Northampton, Mass.). The advanced curve-fitting function in Origin 7.0 was used for calculation of ΔTm values. All determinations were performed in triplicate or better. Esds in ΔTm are ±0.1° C.

A549 (lung cancer) cells = test: SRB growth inhibition, A549; assay type: cell-based, human; conditions: 96 hr, SRB assay; read-out: short-term 96 hr IC50 A549
Method: (§3) Human cancer cell lines and the somatic human cell line WI-38 (lung fibroblast) were purchased from the American Type Culture Collection. Cell lines were maintained in appropriate medium supplemented with 10% foetal bovine serum (Invitrogen, UK), 2 mM L-glutamine (Invitrogen, Netherlands), and other components as specified by the suppliers. Cell lines were maintained at 37° C., 5% CO2 and routinely passaged. Drugs were dissolved in DMSO and filtered through 0.22 μm pore-size filter units before addition to cell line appropriate media. Cellular growth inhibition was measured using the sulforhodamine B (SRB) assay in 96 well plates. Fifty percent inhibitory concentrations (IC50) were determined by taking the mean absorbance at 540 nm for each drug concentration expressed as a percentage of the absorbance of untreated control wells.

[2] = tested on: Hsp90B sequence from the HSP90 promoter; test: FRET quadruplex stabilisation assay, Hsp90B; assay type: binding; conditions: compound at 1 μM, 60 mM potassium cacodylate buffer pH 7.4
Description: as §1, §2

[3] = tested on: ALT (Alternative Lengthening of Telomeres) cell line; test: SRB growth inhibition, ALT; assay type: cell-based, human; conditions: 96 hr, SRB assay; read-out: short-term 96 hr IC50 ALT
Method: as §3

[4] = tested on: Kras32 sequence from the promoter region of the kras gene; test: FRET quadruplex stabilisation assay, Kras32; assay type: binding; conditions: compound at 1 μM, 60 mM potassium cacodylate buffer pH 7.4
Description: as §1, §2

[5] = tested on: Kras21 sequence from the promoter region of the kras gene; test: FRET quadruplex stabilisation assay, Kras21; assay type: binding; conditions: compound at 1 μM, 60 mM potassium cacodylate buffer pH 7.4
Description: as §1, §2

[6] = tested on: human telomeric (F21T) G-quadruplex DNA; test: FRET quadruplex stabilisation assay, F21T; assay type: binding; conditions: compound at 1 μM, 60 mM potassium cacodylate buffer pH 7.4
Description: as §1, §2

[7] = tested on: Tloop (representing duplex DNA); test: FRET assay, Tloop duplex DNA; assay type: binding; conditions: compound at 1 μM, 60 mM potassium cacodylate buffer pH 7.4
Description: as §1, §2

[8] = tested on: Mia-PaCa2 (pancreatic cancer) cells; test: SRB growth inhibition, MiaPaCa2; assay type: cell-based, human; conditions: 96 hr, SRB assay; read-out: short-term 96 hr IC50 MiaPaCa2
Method: as §3

MCF7 (breast) cells = test: SRB growth inhibition, MCF7; assay type: cell-based, human; conditions: 96 hr, SRB assay; read-out: short-term 96 hr IC50 MCF7
Method: as §3

[9] = tested on: WI38 (lung fibroblast) cells; test: SRB growth inhibition, WI38; assay type: cell-based, human; conditions: 96 hr, SRB assay; read-out: short-term 96 hr IC50 WI38
Method: as §3

[10] = tested on: Bcl-2 sequence from the promoter region of the bcl-2 gene; test: FRET quadruplex stabilisation assay, Bcl-2; assay type: binding; conditions: compound at 1 μM, 60 mM potassium cacodylate buffer pH 7.4
Description: as §1, §2

[11] = tested on: Panc1 (pancreatic cancer) cells; test: SRB growth inhibition, Panc1; assay type: cell-based, human; conditions: 96 hr, SRB assay; read-out: short-term 96 hr IC50 Panc1
Method: as §3

Compound	ΔTm Hsp90A [1] [°C]	IC50 (A549 (lung cancer) cells) [nM]	ΔTm Hsp90B [2] [°C]	IC50 [3] [nM]	ΔTm Kras32 [4] [°C]	ΔTm Kras21 [5] [°C]	ΔTm F21T [6] [°C]	ΔTm Tloop [7] [°C]	IC50 [8] [nM]	IC50 (MCF7 (breast) cells) [nM]	IC50 [9] [nM]	ΔTm Bcl-2 [10] [°C]	IC50 [11] [nM]
CN1CCN(CCCNc2cc3c4c(ccc5c4c2C(=O)N(CCCN2CCOCC2)C5=O)C(=O)N(CCCN2CCOCC2)C3=O)CC1 [Compound 4a, 4-((3-(4-methylpiperazin-1-yl)propyl)amino)-2,7-bis(3-morpholinopropyl)benzo[Imn][3,8]phenanthroline-1,3,6,8(2H,7H)-tetraone]	19.8	67	16.5	224	6.1	9.8	14.3	0.8	59	357	1830	15.8	45
CN1CCN(CCNc2cc3c4c(ccc5c4c2C(=O)N(CCCN2CCOCC2)C5=O)C(=O)N(CCCN2CCOCC2)C3=O)CC1 [Compound 4b, 4-((2-(4-methylpiperazin-1-yl)ethyl)amino)-2,7-bis(3-morpholinopropyl)benzo[Imn][3,8]phenanthroline-1,3,6,8(2H,7H)-tetraone]	18.1	86	15.0	85	6.1	11.0	12.3	0.4	48	316	1490	15.1	46
O=C1c2ccc3c4c(c(NCCc5ccccn5)cc(c24)C(=O)N1CCCN1CCOCC1)C(=O)N(CCCN1CCOCC1)C3=O [Compound 4d, 2,7-bis(3-morpholinopropyl)-4-((2-(pyridin-2-yl)ethyl)amino)benzo[Imn][3,8]phenanthroline-1,3,6,8(2H,7H)-tetraone]	2.5	130	<2	1290	1.5	3.0	<2	0	220	1070	2240	2.8	340
O=C1c2ccc3c4c(c(NCCCCN5CCCC5)cc(c24)C(=O)N1CCCN1CCOCC1)C(=O)N(CCCN1CCOCC1)C3=O [Compound 4e, 2,7-bis(3-morpholinopropyl)-4-((4-(pyrrolidin-1-yl)butyl)amino)benzo[Imn][3,8]phenanthroline-1,3,6,8(2H,7H)-tetraone]	20.6	26	16.9	89	6.6	11.7	15.9	0.2	36	222	1220	16.1	33
O=C1c2ccc3c4c(c(NCCN5CCCCC5)cc(c24)C(=O)N1CCCN1CCOCC1)C(=O)N(CCCN1CCOCC1)C3=O [Compound 4f, 2,7-bis(3-morpholinopropyl)-4-((2-(piperidin-1-yl)ethyl)amino)benzo[Imn][3,8]phenanthroline-1,3,6,8(2H,7H)-tetraone]	9.1	198	8.7	535	2.2	4.8	9.8	0.6	108	1110	5330	5.9	84
O=C1c2ccc3c4c(c(NCCN5CCOCC5)cc(c24)C(=O)N1CCCN1CCOCC1)C(=O)N(CCCN1CCOCC1)C3=O [Compound 4g, 4-((2-morpholinoethyl)amino)-2,7-bis(3-morpholinopropyl)benzo[Imn][3,8]phenanthroline-1,3,6,8(2H,7H)-tetraone]	11.0	2180	9.4	10900	1.5	2.4	6.0	1.5	206	> 25000	17600	5.8	220
O=C1c2ccc3c4c(c(NCC5CCCO5)cc(c24)C(=O)N1CCCN1CCOCC1)C(=O)N(CCCN1CCOCC1)C3=O (stereo not shown) [Compound 4h, 4-((tetrahydrofurylmethyl)amino)-2,7-bis(3-morpholinopropyl) benzo[Imn][3,8]phenanthroline-1,3,6,8(2H,7H)-tetraone]	3.9	146	6.8	710	1.2	3.4	1.4	0	139	1030	1880	4.2	808
CCN(CC)CCNc1cc2c3c(ccc4c3c1C(=O)N(CCCN1CCOCC1)C4=O)C(=O)N(CCCN1CCOCC1)C2=O [Compound 4i, 4-((2-(diethylamino)ethyl)amino)-2,7-bis(3-morpholinopropyl)benzo[Imn][3,8]phenanthroline-1,3,6,8(2H,7H)-tetraone]	2.7	825	4.5	2670	0.2	0.7	<2	0	1080	3330	5530	2.4	909
O=C1c2ccc3c4c(c(NCCc5ccc(O)cc5)cc(c24)C(=O)N1CCCN1CCOCC1)C(=O)N(CCCN1CCOCC1)C3=O [Compound 4j, 4-((4-hydroxyphenethyl)amino)-2,7-bis(3-morpholinopropyl)benzo[Imn][3,8]phenanthroline-1,3,6,8(2H,7H)-tetraone]	15.7	92	13.8	451	3.0	6.1	9	0.1	59	1540	1650	10.0	163
CN1CCN(CCCNc2cc3c4c(c(NCCCN5CCN(C)CC5)cc5c4c2C(=O)N(CCCN2CCOCC2)C5=O)C(=O)N(CCCN2CCOCC2)C3=O)CC1 [MM41, 4,9-bis((3-(4-methylpiperazine-1-yl)-propyl)amino)-2,7-bis(3-morpholinopropyl)benzo[Imn][3,8]phenanthroline-1,3,6,8(2H,7H)-tetraone, reference compound]	33.1	19	28.6	63	19.8	22.5	26.6	4.9	11	70	230	26.4	3

Reference: patent US20190330197A1, “SUBSTITUTED NAPHTHALENE DIIMIDES AND THEIR USE” (UCL Business PLC, priority 2015, published 2019)
